# How the values were obtained:
# Assay in all cases: relative viability (nuclei count vs DMSO), 5 days (fraction); higher = more cells survive
# AZ3146 + Decitabine = compound: CN1CCC(CC1)OC2=CC(=C(C=C2)NC3=NC=C4C(=N3)N(C(=O)N4C)C5CCCC5)OC [AZ3146] + Nc1ncn([C@H]2C[C@H](O)[C@@H](CO)O2)c(=O)n1 [Decitabine] (partner 2 µM)
# Procedure, shortened: (§1)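 A single step with final 0.05% Triton X-100, 1% formaldehyde and 1 ug/ml Hoechst fixed the cells and stained nuclei 5 days after treatment. Lung cancer cell lines in 1536-well plates had been treated by pin tool the day after seeding with one drug alone or a fixed anchor-drug dose plus five library-drug doses (not always all listed) in √10 steps, and nuclei were counted on 4× images. Relative viability is the ratio of nuclei in treated wells to nuclei in vehicle wells, taken as the median of duplicate plates.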
# AZ3146 + Dasatinib = compound: CN1CCC(CC1)OC2=CC(=C(C=C2)NC3=NC=C4C(=N3)N(C(=O)N4C)C5CCCC5)OC [AZ3146] + Cc1nc(Nc2ncc(C(=O)Nc3c(C)cccc3Cl)s2)cc(N2CCN(CCO)CC2)n1 [Dasatinib] (partner 0.075 µM)
# Procedure, shortened: as §1
# GSK-J4 + Vorinostat = compound: CCOC(=O)CCNc1cc(N2CCc3ccccc3CC2)nc(-c2ccccn2)n1 [GSK-J4] + O=C(CCCCCCC(=O)Nc1ccccc1)NO [Vorinostat] (partner 1 µM)
# Procedure, shortened: as §1
# AZ3146 + Vorinostat = compound: CN1CCC(CC1)OC2=CC(=C(C=C2)NC3=NC=C4C(=N3)N(C(=O)N4C)C5CCCC5)OC [AZ3146] + O=C(CCCCCCC(=O)Nc1ccccc1)NO [Vorinostat] (partner 1 µM)
# Procedure, shortened: as §1
Cell Line,relative viability (AZ3146 + Decitabine; first compound 0.253 µM),relative viability (AZ3146 + Decitabine; first compound 0.8 µM),relative viability (AZ3146 + Decitabine; first compound 2.53 µM),relative viability (AZ3146 + Decitabine; first compound 8 µM),relative viability (AZ3146 + Dasatinib; first compound 0.253 µM),relative viability (AZ3146 + Dasatinib; first compound 0.8 µM),relative viability (AZ3146 + Dasatinib; first compound 2.53 µM),relative viability (AZ3146 + Dasatinib; first compound 8 µM),relative viability (GSK-J4 + Vorinostat; first compound 0.5 µM),relative viability (GSK-J4 + Vorinostat; first compound 1.581 µM),relative viability (GSK-J4 + Vorinostat; first compound 5 µM),relative viability (GSK-J4 + Vorinostat; first compound 15.81 µM),relative viability (GSK-J4 + Vorinostat; first compound 50 µM),relative viability (AZ3146 + Vorinostat; first compound 0.253 µM),relative viability (AZ3146 + Vorinostat; first compound 0.8 µM),relative viability (AZ3146 + Vorinostat; first compound 2.53 µM),relative viability (AZ3146 + Vorinostat; first compound 8 µM),relative viability (AZ3146 + Decitabine; first compound 0.08 µM),relative viability (AZ3146 + Dasatinib; first compound 0.08 µM),relative viability (AZ3146 + Vorinostat; first compound 0.08 µM)
BEN,0.673,0.611,0.759,0.644,0.228,0.353,0.322,0.362,0.559,0.46,0.511,0.571,0.505,0.54,0.608,0.558,0.588,–,–,–
SW 1573,0.605,0.542,0.397,0.162,0.637,0.505,0.357,0.117,0.817,0.396,0.406,0.845,0.276,0.767,0.643,0.723,0.307,0.509,0.557,0.636
EPLC-272H,0.379,0.396,0.368,0.418,0.396,0.347,0.413,0.287,0.461,0.37,0.599,0.335,0.284,0.52,0.299,0.499,0.329,0.375,–,0.297
LK-2,0.372,0.284,0.319,0.337,0.218,0.279,0.25,0.322,0.193,0.248,0.243,0.126,0.579,0.243,0.326,0.388,0.389,–,0.376,0.159
NCI-H23,0.313,0.324,0.354,0.425,0.767,0.612,0.756,0.97,0.596,0.411,0.583,0.473,0.506,0.593,0.572,0.769,0.377,0.329,0.894,0.473
NCI-H441,0.284,0.259,0.254,0.237,0.68,0.922,0.497,0.536,0.716,0.602,0.779,0.714,0.715,0.803,0.557,0.821,0.647,0.203,0.636,0.674
NCI-H2009,0.333,0.41,0.417,0.328,0.315,0.284,0.241,0.184,0.731,0.622,0.56,0.682,0.259,0.673,0.743,0.704,0.543,0.372,0.363,0.635
NCI-H2170,0.477,0.461,0.421,0.466,0.455,0.598,0.61,0.491,0.813,0.677,0.803,0.638,0.761,0.763,0.854,0.867,0.751,0.441,0.497,0.815
HCC-78,0.746,0.623,0.744,0.728,0.304,0.309,0.354,0.315,0.462,0.435,0.601,0.363,0.587,0.496,0.435,0.354,0.471,–,0.254,–
NCI-H3122,0.44,0.42,0.426,0.514,0.816,0.859,0.817,0.752,0.984,0.876,0.966,0.905,0.986,0.969,1.08,1.07,0.932,0.475,0.878,0.92
NCI-H2228,–,–,–,–,0.562,0.579,0.511,0.483,0.642,0.873,0.823,0.617,0.797,0.695,0.874,0.956,0.674,–,0.466,0.589
CAL-12T,–,–,–,–,0.517,0.369,0.377,0.192,0.723,0.693,0.874,0.689,0.682,0.743,0.832,0.778,0.553,–,0.453,0.695
NCI-H1563,–,–,–,–,0.48,0.441,0.422,0.448,–,–,–,–,–,–,–,–,–,–,0.482,–
NCI-H1792,0.503,0.54,0.641,0.669,0.855,–,0.808,0.822,–,–,–,–,–,–,–,–,–,0.399,0.737,–
NCI-H1648,–,0.514,0.562,0.429,–,–,–,–,0.527,–,0.868,–,0.415,–,0.554,0.498,0.634,–,–,–
A549,0.284,0.332,0.316,0.205,–,–,–,–,–,–,–,–,–,–,–,–,–,0.318,–,–
NCI-H1623,–,–,–,–,0.455,0.498,0.601,0.556,–,–,–,–,–,–,–,–,–,–,0.482,–

# From the supplement of paper PMC10307832
